Tested on: P12-Ichikawa
Experiment: cell viability relative to DMSO control; higher = less cytotoxic
Conditions: 48 h
Method in brief: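 Viability is a per-plate percentage relative to DMSO wells, with cell-free wells as background. CellTiter-Glo One luminescence was read after 48 h at 37°C on 1536-well plates (5 μl) of NOMO1 or SEM (500 cells/well) or P12-Ichikawa (1000 cells/well) leukemia cells. The cells had been adapted for at least four passages in each medium and pin-dosed with library compounds in DMSO from 47 μM to 0.79 nM in 11 threefold steps.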

[1] = HPLM + 10% dialyzed FBS, 0.000781 µM
[2] = HPLM + 10% dialyzed FBS, 0.00234 µM
[3] = HPLM + 10% dialyzed FBS, 0.00702 µM
[4] = HPLM + 10% dialyzed FBS, 0.0211 µM
[5] = HPLM + 10% dialyzed FBS, 0.0632 µM
[6] = HPLM + 10% dialyzed FBS, 0.19 µM
[7] = HPLM + 10% dialyzed FBS, 0.569 µM
[8] = HPLM + 10% dialyzed FBS, 1.71 µM
[9] = HPLM + 10% dialyzed FBS, 5.12 µM
[10] = HPLM + 10% dialyzed FBS, 15.4 µM
[11] = HPLM + 10% dialyzed FBS, 46.1 µM
[12] = RPMI 5 mM glucose + 10% FBS, 0.000781 µM
[13] = RPMI 5 mM glucose + 10% FBS, 0.00234 µM
[14] = RPMI 5 mM glucose + 10% FBS, 0.00702 µM
[15] = RPMI 5 mM glucose + 10% FBS, 0.0211 µM
[16] = RPMI 5 mM glucose + 10% FBS, 0.0632 µM
[17] = RPMI 5 mM glucose + 10% FBS, 0.19 µM
[18] = RPMI 5 mM glucose + 10% FBS, 0.569 µM
[19] = RPMI 5 mM glucose + 10% FBS, 1.71 µM
[20] = RPMI 5 mM glucose + 10% FBS, 5.12 µM
[21] = RPMI 5 mM glucose + 10% FBS, 15.4 µM
[22] = RPMI 5 mM glucose + 10% FBS, 46.1 µM
[23] = RPMI 5 mM glucose + 10% dialyzed FBS, 0.000781 µM
[24] = RPMI 5 mM glucose + 10% dialyzed FBS, 0.00234 µM
[25] = RPMI 5 mM glucose + 10% dialyzed FBS, 0.00702 µM
[26] = RPMI 5 mM glucose + 10% dialyzed FBS, 0.0211 µM
[27] = RPMI 5 mM glucose + 10% dialyzed FBS, 0.0632 µM
[28] = RPMI 5 mM glucose + 10% dialyzed FBS, 0.19 µM
[29] = RPMI 5 mM glucose + 10% dialyzed FBS, 0.569 µM
[30] = RPMI 5 mM glucose + 10% dialyzed FBS, 1.71 µM
[31] = RPMI 5 mM glucose + 10% dialyzed FBS, 5.12 µM
[32] = RPMI 5 mM glucose + 10% dialyzed FBS, 15.4 µM
[33] = RPMI 5 mM glucose + 10% dialyzed FBS, 46.1 µM

| SMILES | cell viability [1] | cell viability [2] | cell viability [3] | cell viability [4] | cell viability [5] | cell viability [6] | cell viability [7] | cell viability [8] | cell viability [9] | cell viability [10] | cell viability [11] | cell viability [12] | cell viability [13] | cell viability [14] | cell viability [15] | cell viability [16] | cell viability [17] | cell viability [18] | cell viability [19] | cell viability [20] | cell viability [21] | cell viability [22] | cell viability [23] | cell viability [24] | cell viability [25] | cell viability [26] | cell viability [27] | cell viability [28] | cell viability [29] | cell viability [30] | cell viability [31] | cell viability [32] | cell viability [33] |
| --- | --- | --- | --- | --- | --- | --- | --- | --- | --- | --- | --- | --- | --- | --- | --- | --- | --- | --- | --- | --- | --- | --- | --- | --- | --- | --- | --- | --- | --- | --- | --- | --- | --- |
| Cc1cc(OCCCc2c(C(=O)O)n(Cc3cccnc3)c3c(-c4c(COc5ccc(N6CCN([S+](C)(=O)[O-])CC6)cc5)nn(C)c4C)cccc23)cc(C)c1Cl | 99.6% | 100% | 100% | 97% | 99.8% | 97.4% | 92.9% | 96.1% | 86.9% | 88.1% | 80.4% | 92.4% | 102% | 96.6% | 102% | 101% | 95.6% | 85.9% | 89.3% | 86.2% | 88.3% | 77.1% | 91.3% | 95% | 99.3% | 97.5% | 102% | 98.4% | 90.9% | 93.5% | 93.1% | 78.2% | 82.9% |
| CC(C)NCC(O)COc1ccc(COCCOC(C)C)cc1 (centres undefined) | 115% | 117% | 105% | 103% | 113% | 118% | 112% | 96.5% | 92.6% | 107% | 99.5% | 113% | 121% | 120% | 120% | 131% | 124% | 115% | 110% | 110% | 116% | 115% | 113% | 106% | 107% | 111% | 114% | 104% | 105% | 104% | 104% | 104% | 104% |
| CC1(C)CCC[C@]2(C)[C@H]3CC(=O)O[C@]3(C)CC[C@@H]12 | 118% | 115% | 114% | 114% | 116% | 110% | 115% | 116% | 110% | 107% | 99.1% | 121% | 120% | 122% | 120% | 119% | 124% | 119% | 109% | 109% | 111% | 93.5% | 110% | 115% | 119% | 116% | 112% | 113% | 105% | 107% | 108% | 97.5% | 92.4% |
| COC1=C(N2CCNC(C)C2)C(=CC3=C1N(\C=C(C(O)=O)/C3=O)C4CC4)F (centres undefined) | 101% | 105% | 112% | 101% | 91.1% | 111% | 106% | 106% | 98.1% | 101% | 87.5% | 102% | 105% | 108% | 99.6% | 88.2% | 105% | 100% | 106% | 17.8% | 96.7% | 76.9% | 94.5% | 101% | 99.2% | 104% | 95.8% | 98.1% | 99.9% | 104% | 101% | 99.8% | 78.6% |
| CC(C)(C)c1cc(NC(=O)Nc2ccc(-c3cn4c(n3)sc3cc(OCCN5CCOCC5)ccc34)cc2)no1 | 88.7% | 99.1% | 97.4% | 108% | 95.3% | 99.4% | 104% | 101% | 94.4% | 101% | 91% | 83.8% | 89.9% | 88.1% | 89.2% | 86% | 88.9% | 86.4% | 82.5% | 82.6% | 80.3% | 85.6% | 93.4% | 91.6% | 93.1% | 88.9% | 96.6% | 92.1% | 101% | 92.4% | 87.7% | 93.8% | 88.5% |
| CC/C(=C(/c1ccc(O)cc1)c1ccc(OCCNC)cc1)c1ccccc1 | 105% | 108% | 110% | 115% | 118% | 94.8% | 104% | 106% | 71.9% | 63% | 68.6% | 116% | 108% | 109% | 108% | 114% | 122% | 113% | 107% | 68.3% | 53.7% | 42% | 115% | 116% | 116% | 117% | 120% | 126% | 119% | 101% | 64.7% | 49.4% | 46.5% |
| CN(C)CCOc1cc(-c2cn[nH]c2)ccc1NC(=O)C1COc2ccccc2O1 (centres undefined) | 105% | 112% | 103% | 107% | 114% | 117% | 110% | 104% | 98.7% | 95.3% | 95.3% | 107% | 113% | 115% | 112% | 117% | 118% | 128% | 113% | 107% | 88.8% | 84.1% | 105% | 122% | 123% | 116% | 122% | 125% | 128% | 118% | 109% | 95.8% | 97.2% |
| CCN(CC)CC#CCOC(=O)C(O)(c1ccccc1)C1CCCCC1 (centres undefined) | 105% | 118% | 113% | 78.3% | 119% | 110% | 120% | 117% | 118% | 118% | 106% |  |  |  |  |  |  |  |  |  |  |  | 118% | 119% | 120% | 85.5% | 137% | 135% | 125% | 123% | 122% | 117% | 111% |
| CCc1cc(Nc2nccc(-c3c(-c4ccc(OC)c(C(=O)Nc5c(F)cccc5F)c4)nc4ccccn34)n2)c(OC)cc1N1CCC(N2CCN([S+](C)(=O)[O-])CC2)CC1 | 97.9% | 108% | 100% | 112% | 107% | 112% | 110% | 110% | 112% | 87.1% | 39.8% | 98.3% | 101% | 106% | 105% | 107% | 113% | 111% | 113% | 109% | 85.1% | 37.9% | 108% | 116% | 112% | 114% | 107% | 107% | 109% | 125% | 115% | 87.4% | 49.6% |
| Cc1nc(NC(=O)N2CCC[C@H]2C(N)=O)sc1-c1ccnc(C(C)(C)C(F)(F)F)c1 | 96.4% | 100% | 97.1% | 93.3% | 97.7% | 92.4% | 89.8% | 87.6% | 72.2% | 62.9% | 83.2% | 89.4% | 89.2% | 95.4% | 93.7% | 90.6% | 86.9% | 79.6% | 76.2% | 57.5% | 48.3% | 77.8% | 97.9% | 92.4% | 94.4% | 91.8% | 93.4% | 81.5% | 86.7% | 78.9% | 63.7% | 51.6% | 83.3% |
| CC(C)C(C)/C=C/C(C)C1CCC2C3=CC=C4CC(O)CCC4(C)C3CCC21C (centres undefined) | 110% | 105% | 97.8% | 109% | 99.5% | 96.6% | 111% | 94.4% | 106% | 97.8% | 97.3% | 99.1% | 99.4% | 98.3% | 106% | 96.7% | 98.4% | 102% | 97.6% | 93.5% | 94.5% | 92.2% | 91.1% | 94.8% | 102% | 97.1% | 103% | 96.7% | 97.5% | 96.8% | 92.8% | 91% | 89.4% |
| C=CC(=O)Nc1cccc(Oc2nc(Nc3ccc(N4CCN(C)CC4)cc3)ncc2Cl)c1 | 109% | 123% | 123% | 122% | 131% | 130% | 122% | 113% | 102% | 22.4% | 52.5% |  |  |  |  |  |  |  |  |  |  |  |  |  |  |  |  |  |  |  |  |  |  |
| C[C@H]1[C@H](NC(=O)/C(=N/OC(C)(C)C(=O)O)c2csc(N)n2)C(=O)N1[S+](=O)([O-])O | 108% | 116% | 109% | 102% | 106% | 117% | 111% | 105% | 109% | 95.3% | 103% | 99.3% | 102% | 97.1% | 102% | 101% | 106% | 101% | 110% | 98.4% | 93.4% | 97.3% | 81.3% | 101% | 101% | 102% | 110% | 102% | 101% | 93.8% | 93.3% | 99.4% | 92.3% |
| CC\1=C/C=C\C=[N]1[Pt](N)(Cl)Cl | 98.1% | 108% | 113% | 108% | 105% | 109% | 102% | 114% | 104% | 107% | 108% | 98.1% | 98.4% | 102% | 104% | 118% | 118% | 114% | 106% | 99.1% | 108% | 97.3% | 102% | 109% | 98.3% | 107% | 114% | 112% | 110% | 105% | 105% | 87.2% | 91.4% |

From the supplement of paper PMC11451515
